#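 Five compound concentrations were applied to cells in 96-well plates for 48 hours; endpoints were derived by simple linear interpolation of the resulting dose-response curve. TGI: total growth inhibition.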
# Legend:
# Experiment in all cases: growth of human tumour cells (NCI), 48 h
# 786-0 renal = test system: 786-0 renal
# A498 renal = test system: A498 renal
# A549 NSCLC = test system: A549 NSCLC
# ACHN renal = test system: ACHN renal
# BT-549 breast = test system: BT-549 breast
# CAKI-1 renal = test system: CAKI-1 renal
# CCRF-CEM leukemia = test system: CCRF-CEM leukemia
# COLO 205 colon = test system: COLO 205 colon
# DLD-1 colon = test system: DLD-1 colon
# DMS 114 small cell lung = test system: DMS 114 small cell lung
# DMS 273 small cell lung = test system: DMS 273 small cell lung
# DU-145 prostate = test system: DU-145 prostate
# EKVX NSCLC = test system: EKVX NSCLC
# HCC-2998 colon = test system: HCC-2998 colon
# HCT-116 colon = test system: HCT-116 colon
# HCT-15 colon = test system: HCT-15 colon
# HL-60(TB) leukemia = test system: HL-60(TB) leukemia
# HOP-18 NSCLC = test system: HOP-18 NSCLC
# HOP-62 NSCLC = test system: HOP-62 NSCLC
# HOP-92 NSCLC = test system: HOP-92 NSCLC
# HS 578T breast = test system: HS 578T breast
# HT29 colon = test system: HT29 colon
# IGROV1 ovarian = test system: IGROV1 ovarian
# K-562 leukemia = test system: K-562 leukemia
# KM12 colon = test system: KM12 colon
# KM20L2 colon = test system: KM20L2 colon
# LOX IMVI melanoma = test system: LOX IMVI melanoma
# LXFL 529 NSCLC = test system: LXFL 529 NSCLC
# M14 melanoma = test system: M14 melanoma
# M19-MEL melanoma = test system: M19-MEL melanoma
# MALME-3M melanoma = test system: MALME-3M melanoma
# MCF7 breast = test system: MCF7 breast
# MDA-MB-231 breast = test system: MDA-MB-231 breast
# MDA-MB-435 = test system: MDA-MB-435
# MDA-N = test system: MDA-N
# MOLT-4 leukemia = test system: MOLT-4 leukemia
# NCI-H226 lung = test system: NCI-H226 lung
# NCI-H23 lung = test system: NCI-H23 lung
# NCI-H460 lung = test system: NCI-H460 lung
# NCI-H522 lung = test system: NCI-H522 lung
# OVCAR-3 ovarian = test system: OVCAR-3 ovarian
# OVCAR-4 ovarian = test system: OVCAR-4 ovarian
# OVCAR-5 ovarian = test system: OVCAR-5 ovarian
# OVCAR-8 ovarian = test system: OVCAR-8 ovarian
# PC-3 prostate = test system: PC-3 prostate
# RPMI-8226 leukemia = test system: RPMI-8226 leukemia
# RXF 393 renal = test system: RXF 393 renal
# SF-268 CNS = test system: SF-268 CNS
# SF-295 CNS = test system: SF-295 CNS
# SF-539 CNS = test system: SF-539 CNS
# SK-MEL-2 melanoma = test system: SK-MEL-2 melanoma
# SK-MEL-28 melanoma = test system: SK-MEL-28 melanoma
# SK-MEL-5 melanoma = test system: SK-MEL-5 melanoma
# SK-OV-3 ovarian = test system: SK-OV-3 ovarian
# SN12C renal = test system: SN12C renal
# SNB-19 CNS = test system: SNB-19 CNS
# SNB-75 CNS = test system: SNB-75 CNS
# SR leukemia = test system: SR leukemia
# SW-620 colon = test system: SW-620 colon
# T-47D breast = test system: T-47D breast
# TK-10 renal = test system: TK-10 renal
# U251 CNS = test system: U251 CNS
# UACC-257 melanoma = test system: UACC-257 melanoma
# UACC-62 melanoma = test system: UACC-62 melanoma
# UO-31 renal = test system: UO-31 renal
# XF 498 CNS = test system: XF 498 CNS
compound,measurement,setting,value
CCN(CC)CCC(=O)N1C/C(=C/c2ccccc2)C(=O)/C(=C\c2ccccc2)C1,TGI,786-0 renal,9.78 µM
same,TGI,A498 renal,11 µM
same,TGI,A549 NSCLC,17.1 µM
same,TGI,ACHN renal,7.63 µM
same,TGI,BT-549 breast,1.81 µM
same,TGI,CAKI-1 renal,5.08 µM
same,TGI,CCRF-CEM leukemia,0.947 µM
same,TGI,COLO 205 colon,6.74 µM
same,TGI,DLD-1 colon,2.82 µM
same,TGI,DMS 114 small cell lung,4.54 µM
same,TGI,DMS 273 small cell lung,3.15 µM
same,TGI,DU-145 prostate,12.5 µM
same,TGI,EKVX NSCLC,13.6 µM
same,TGI,HCC-2998 colon,1.94 µM
same,TGI,HCT-116 colon,1.02 µM
same,TGI,HCT-15 colon,3.91 µM
same,TGI,HL-60(TB) leukemia,1.62 µM
same,TGI,HOP-18 NSCLC,9.19 µM
same,TGI,HOP-62 NSCLC,26.1 µM
same,TGI,HOP-92 NSCLC,17 µM
same,TGI,HS 578T breast,2.21 µM
same,TGI,HT29 colon,2.24 µM
same,TGI,IGROV1 ovarian,9.69 µM
same,TGI,K-562 leukemia,2.62 µM
same,TGI,KM12 colon,2.51 µM
same,TGI,KM20L2 colon,3.5 µM
same,TGI,LOX IMVI melanoma,0.949 µM
same,TGI,LXFL 529 NSCLC,3.27 µM
same,TGI,M14 melanoma,6.63 µM
same,TGI,M19-MEL melanoma,3.68 µM
same,TGI,MALME-3M melanoma,7.36 µM
same,TGI,MCF7 breast,1.69 µM
same,TGI,MDA-MB-231 breast,2.57 µM
same,TGI,MDA-MB-435,5.5 µM
same,TGI,MDA-N,2.45 µM
same,TGI,MOLT-4 leukemia,1.33 µM
same,TGI,NCI-H226 lung,13.7 µM
same,TGI,NCI-H23 lung,3.91 µM
same,TGI,NCI-H460 lung,11.4 µM
same,TGI,NCI-H522 lung,2.29 µM
same,TGI,OVCAR-3 ovarian,11 µM
same,TGI,OVCAR-4 ovarian,6.04 µM
same,TGI,OVCAR-5 ovarian,9.76 µM
same,TGI,OVCAR-8 ovarian,10.2 µM
same,TGI,PC-3 prostate,2.9 µM
same,TGI,RPMI-8226 leukemia,0.568 µM
same,TGI,RXF 393 renal,2.99 µM
same,TGI,SF-268 CNS,5.4 µM
same,TGI,SF-295 CNS,5.15 µM
same,TGI,SF-539 CNS,10.8 µM
same,TGI,SK-MEL-2 melanoma,5.08 µM
same,TGI,SK-MEL-28 melanoma,4.16 µM
same,TGI,SK-MEL-5 melanoma,3.98 µM
same,TGI,SK-OV-3 ovarian,20.9 µM
same,TGI,SN12C renal,3.39 µM
same,TGI,SNB-19 CNS,6.63 µM
same,TGI,SNB-75 CNS,12.5 µM
same,TGI,SR leukemia,> 100 µM
same,TGI,SW-620 colon,0.629 µM
same,TGI,T-47D breast,4.07 µM
same,TGI,TK-10 renal,18.4 µM
same,TGI,U251 CNS,1.9 µM
same,TGI,UACC-257 melanoma,4.98 µM
same,TGI,UACC-62 melanoma,4.92 µM
same,TGI,UO-31 renal,3.78 µM
same,TGI,XF 498 CNS,7.57 µM

# Source: PubChem BioAssay (NCI)
